Laboratory results from patent publication US20220323406A1, “METHODS AND COMPOSITIONS FOR DIFFERENTIATING STEM CELLS” (Massachusetts Institute of Technology, priority 2019, published 2022).

How the values were obtained:
[1] = test system: ENR+CD organoids (ISC to Paneth cell differentiation); assay: Primary screen: basal (non-stimulated) lysozyme secretion LYZ.NS, 2.5-D 384-well ENR+CD organoid differentiation; assay type: cell-based, mouse; conditions: primary screen; for Z.LYZ.NS: standard z score
Source text: (§1) High-throughput screening.

[2] = test system: ENR+CD organoids (ISC to Paneth cell differentiation); assay: Primary screen: CCh-stimulated lysozyme secretion LYZ.S, 2.5-D 384-well ENR+CD organoid differentiation; assay type: cell-based, mouse; conditions: primary screen
Source text: as §1

ENR+CD organoids = assay: Primary screen: ATP (CellTiter-Glo 3D, CTG) cell number/viability, 2.5-D 384-well ENR+CD organoids; conditions: primary screen; for Z.CTG: standard z score;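 on all read-outs here: compounds given at plating and again on day 3 over a 6-day differentiation from ENR+CV stem-cell-enriched precursors, ATP measured on day 6, plate median as control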

Compound	Z.LYZ.NS (standard z score) ([1]; dose 0.08 uM)	Z.LYZ.NS (standard z score) ([1]; dose 0.40 uM)	Z.LYZ.NS (standard z score) ([1]; dose 2.00 uM)	Z.LYZ.NS (standard z score) ([1]; dose 10.00 uM)	Dose.FC.LYZ.S (log2 fold change) ([2]; dose 0.08 uM)	Dose.FC.LYZ.S (log2 fold change) ([2]; dose 0.40 uM)	Dose.FC.LYZ.S (log2 fold change) ([2]; dose 10.00 uM)	Z.CTG (standard z score) (ENR+CD organoids; dose 0.08 uM)	Z.CTG (standard z score) (ENR+CD organoids; dose 0.40 uM)	Z.CTG (standard z score) (ENR+CD organoids; dose 2.00 uM)	Z.CTG (standard z score) (ENR+CD organoids; dose 10.00 uM)	Dose.FC.LYZ.NS ([1]; dose 0.08 uM) [log2 fold change]	Dose.FC.LYZ.NS ([1]; dose 0.40 uM) [log2 fold change]	Dose.FC.LYZ.NS ([1]; dose 2.00 uM) [log2 fold change]	Dose.FC.LYZ.NS ([1]; dose 10.00 uM) [log2 fold change]	Dose.FC.LYZ.S ([2]; dose 0.08 uM) [log2 fold change]	Dose.FC.LYZ.S ([2]; dose 0.40 uM) [log2 fold change]	Dose.FC.LYZ.S ([2]; dose 2.00 uM) [log2 fold change]	Dose.FC.LYZ.S ([2]; dose 10.00 uM) [log2 fold change]	Dose.FC.CTG (ENR+CD organoids; dose 0.08 uM) [log2 fold change]	further results
C=CC(=O)N1CCC[C@@H](n2nc(-c3ccc(Oc4ccccc4)cc3)c3c(N)ncnc32)C1 [Ibrutinib (PCI-32765)]	−0.619	−1.225	−1.763	−1.737	−0.139	−0.206	−0.312	−0.065	−1.112	−1.244	−2.224										
C=CC(=O)Nc1cccc(Nc2nc(Nc3ccc(Oc4ccnc(C(=O)NC)c4)cc3)ncc2F)c1 [CNX-774]												0.075	−0.008	0.158	−0.043	0.014	−0.027	0.082	−0.089	0.259	Z.LYZ.NS ([1]; dose 0.08 uM): 0.655; Z.LYZ.NS ([1]; dose 0.40 uM): −0.067; Z.LYZ.NS ([1]; dose 2.00 uM): 1.378; Z.LYZ.NS ([1]; dose 10.00 uM): −0.376; Dose.FC.CTG (ENR+CD organoids; dose 0.40 uM): 0.177 log2 fold change; Dose.FC.CTG (ENR+CD organoids; dose 2.00 uM): −0.109 log2 fold change; Dose.FC.CTG (ENR+CD organoids; dose 10.00 uM): −0.081 log2 fold change; Z.CTG (ENR+CD organoids; dose 0.08 uM): 0.619; Z.CTG (ENR+CD organoids; dose 0.40 uM): 0.422; Z.CTG (ENR+CD organoids; dose 2.00 uM): −0.260; Z.CTG (ENR+CD organoids; dose 10.00 uM): −0.194
CC(=O)Nc1cccc2c1c(Sc1ccc(Cl)cc1)c(C)n2CC(=O)O [AZD1981]	0.081	0.008	0.011	0.205				0.955	0.681	0.236	0.570	0.009	0.001	0.001	0.024	0.023	0.191	0.014	0.070	0.400	Dose.FC.CTG (ENR+CD organoids; dose 0.40 uM): 0.285 log2 fold change; Dose.FC.CTG (ENR+CD organoids; dose 2.00 uM): 0.099 log2 fold change; Dose.FC.CTG (ENR+CD organoids; dose 10.00 uM): 0.238 log2 fold change
CC[C@H](C)C(=O)O[C@H]1C[C@@H](C)C=C2C=C[C@H](C)[C@H](CC[C@@H]3C[C@@H](O)CC(=O)O3)[C@H]21 [Lovastatin]	0.017	−0.492	−2.430	−2.362	−0.023	−0.049	−0.409														Dose.FC.LYZ.NS (log2 fold change) ([1]; dose 0.08 uM): 0.002; Dose.FC.LYZ.NS (log2 fold change) ([1]; dose 0.40 uM): −0.057; Dose.FC.LYZ.NS (log2 fold change) ([1]; dose 2.00 uM): −0.279; Dose.FC.LYZ.NS (log2 fold change) ([1]; dose 10.00 uM): −0.271; Dose.FC.LYZ.S (log2 fold change) ([2]; dose 2.00 uM): −0.398; Dose.FC.CTG (log2 fold change) (ENR+CD organoids; dose 0.08 uM): −0.322; Dose.FC.CTG (log2 fold change) (ENR+CD organoids; dose 0.40 uM): −0.492; Dose.FC.CTG (log2 fold change) (ENR+CD organoids; dose 2.00 uM): −1.174; Dose.FC.CTG (log2 fold change) (ENR+CD organoids; dose 10.00 uM): −1.391
O=C(/C=C\n1cnc(-c2cc(C(F)(F)F)cc(C(F)(F)F)c2)n1)N1CC(F)(F)C1 [KPT-276]	0.492	0.746	−1.947	−2.230	0.133	0.148	−0.361	0.399	−0.104	−0.986	−1.680										Dose.FC.LYZ.NS (log2 fold change) ([1]; dose 0.08 uM): 0.056; Dose.FC.LYZ.NS (log2 fold change) ([1]; dose 0.40 uM): 0.086; Dose.FC.LYZ.NS (log2 fold change) ([1]; dose 2.00 uM): −0.224; Dose.FC.LYZ.NS (log2 fold change) ([1]; dose 10.00 uM): −0.256; Dose.FC.LYZ.S (log2 fold change) ([2]; dose 2.00 uM): −0.327; Dose.FC.CTG (log2 fold change) (ENR+CD organoids; dose 0.08 uM): 0.167; Dose.FC.CTG (log2 fold change) (ENR+CD organoids; dose 0.40 uM): −0.044; Dose.FC.CTG (log2 fold change) (ENR+CD organoids; dose 2.00 uM): −0.413; Dose.FC.CTG (log2 fold change) (ENR+CD organoids; dose 10.00 uM): −0.703
COc1cc(Nc2ncc(F)c(Nc3ccc4c(n3)N(COP(=O)(O)O)C(=O)C(C)(C)O4)n2)cc(OC)c1OC [Fostamatinib (R788)]												0.119	−0.025	−0.099	−0.234	0.235	0.156	−0.015	−0.350	0.232	Z.LYZ.NS ([1]; dose 0.08 uM): 1.033; Z.LYZ.NS ([1]; dose 0.40 uM): −0.217; Z.LYZ.NS ([1]; dose 2.00 uM): −0.860; Z.LYZ.NS ([1]; dose 10.00 uM): −2.036; Dose.FC.CTG (ENR+CD organoids; dose 0.40 uM): −0.052 log2 fold change; Dose.FC.CTG (ENR+CD organoids; dose 2.00 uM): −0.231 log2 fold change; Dose.FC.CTG (ENR+CD organoids; dose 10.00 uM): −0.881 log2 fold change; Z.CTG (ENR+CD organoids; dose 0.08 uM): 0.554; Z.CTG (ENR+CD organoids; dose 0.40 uM): −0.123; Z.CTG (ENR+CD organoids; dose 2.00 uM): −0.552; Z.CTG (ENR+CD organoids; dose 10.00 uM): −2.105
